Columns and labels:
Assay in all cases: Carna kinome panel
Assay type in all cases: biochemical
Conditions in all cases: read-out: % Inhibition at 10 μM of the test compound
PHKG1 = PHKG1 (Homo sapiens (Human), UniProt Q16816)
PKCβ2 = PKCβ2 (Homo sapiens (Human), UniProt P05771)
ROS = ROS (Homo sapiens (Human), UniProt P08922)
EGFR(L861Q) = EGFR(L861Q) (Homo sapiens (Human), UniProt P00533, L861Q)
PKCι = PKCι (Homo sapiens (Human), UniProt P41743)
HIPK3 = HIPK3 (Homo sapiens (Human), UniProt Q9H422)
SGK2 = SGK2 (Homo sapiens (Human), UniProt Q9HBY8)
Chain of SGK2 (Q9HBY8 whole entry): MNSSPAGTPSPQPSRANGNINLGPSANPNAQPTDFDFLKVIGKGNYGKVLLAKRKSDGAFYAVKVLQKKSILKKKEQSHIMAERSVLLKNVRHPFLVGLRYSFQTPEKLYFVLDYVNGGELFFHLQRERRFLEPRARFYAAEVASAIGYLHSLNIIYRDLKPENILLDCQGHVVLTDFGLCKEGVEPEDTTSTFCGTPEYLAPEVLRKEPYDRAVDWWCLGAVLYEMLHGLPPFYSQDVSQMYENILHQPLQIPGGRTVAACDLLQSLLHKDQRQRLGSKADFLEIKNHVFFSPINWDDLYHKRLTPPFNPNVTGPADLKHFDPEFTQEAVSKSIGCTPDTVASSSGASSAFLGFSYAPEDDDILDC

PKCγ = PKCγ (Homo sapiens (Human), UniProt P05129)
CaMK2β = CaMK2β (Homo sapiens (Human), UniProt Q13554)
BLK = BLK (Homo sapiens (Human), UniProt P51451)
DAPK1 = DAPK1 (Homo sapiens (Human), UniProt P53355)
CK1γ3 = CK1γ3 (Homo sapiens (Human), UniProt Q9Y6M4)
Chain of CK1γ3 (Q9Y6M4 whole entry): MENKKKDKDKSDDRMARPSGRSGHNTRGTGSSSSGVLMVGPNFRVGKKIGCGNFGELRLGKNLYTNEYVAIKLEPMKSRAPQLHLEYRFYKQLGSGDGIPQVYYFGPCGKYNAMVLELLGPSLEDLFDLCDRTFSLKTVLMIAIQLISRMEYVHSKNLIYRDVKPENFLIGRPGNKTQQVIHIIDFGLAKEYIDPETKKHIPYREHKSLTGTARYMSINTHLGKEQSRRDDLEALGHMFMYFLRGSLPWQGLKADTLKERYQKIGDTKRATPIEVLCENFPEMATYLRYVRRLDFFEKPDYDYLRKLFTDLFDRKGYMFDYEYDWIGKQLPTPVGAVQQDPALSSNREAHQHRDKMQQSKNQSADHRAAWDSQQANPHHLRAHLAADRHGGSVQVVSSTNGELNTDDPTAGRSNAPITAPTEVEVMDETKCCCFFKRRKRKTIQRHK

CDK7/CycH/MAT1 = CDK7/CycH/MAT1 (Homo sapiens (Human), UniProt P50613)
Chain of CDK7/CycH/MAT1 (P50613 whole entry, looked up): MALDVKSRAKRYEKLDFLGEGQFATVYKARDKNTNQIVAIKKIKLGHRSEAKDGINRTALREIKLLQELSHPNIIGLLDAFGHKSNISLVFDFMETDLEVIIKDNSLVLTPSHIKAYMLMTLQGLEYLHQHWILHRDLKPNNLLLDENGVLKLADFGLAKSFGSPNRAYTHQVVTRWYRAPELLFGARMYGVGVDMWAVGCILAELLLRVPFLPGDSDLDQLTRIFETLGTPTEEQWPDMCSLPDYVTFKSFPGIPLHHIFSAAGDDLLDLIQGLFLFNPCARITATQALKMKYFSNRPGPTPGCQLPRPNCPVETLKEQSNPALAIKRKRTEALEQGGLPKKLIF
Chain of CDK7/CycH/MAT1 (P51946 whole entry partner, looked up): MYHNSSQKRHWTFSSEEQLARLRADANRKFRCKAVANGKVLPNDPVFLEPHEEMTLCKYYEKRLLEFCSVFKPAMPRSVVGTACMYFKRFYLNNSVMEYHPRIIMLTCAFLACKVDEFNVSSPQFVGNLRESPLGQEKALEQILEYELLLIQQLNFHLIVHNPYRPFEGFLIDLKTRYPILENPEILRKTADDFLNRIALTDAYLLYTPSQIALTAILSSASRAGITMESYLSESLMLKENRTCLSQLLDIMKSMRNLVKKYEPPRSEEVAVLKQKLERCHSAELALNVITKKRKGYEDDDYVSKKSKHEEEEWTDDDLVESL
Chain of CDK7/CycH/MAT1 (P51948 whole entry partner, looked up): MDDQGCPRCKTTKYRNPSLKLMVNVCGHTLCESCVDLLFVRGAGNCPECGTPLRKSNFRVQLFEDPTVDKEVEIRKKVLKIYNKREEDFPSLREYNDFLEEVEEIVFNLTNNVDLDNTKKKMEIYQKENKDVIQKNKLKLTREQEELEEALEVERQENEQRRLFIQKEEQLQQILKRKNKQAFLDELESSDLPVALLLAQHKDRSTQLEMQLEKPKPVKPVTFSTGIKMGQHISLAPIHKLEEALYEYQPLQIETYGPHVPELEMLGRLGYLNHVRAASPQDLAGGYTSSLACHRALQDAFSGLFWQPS

TSSK3 = TSSK3 (Homo sapiens (Human), UniProt Q96PN8)
EEF2K = EEF2K (Homo sapiens (Human), UniProt O00418)
AurB = AurB (Homo sapiens (Human), UniProt Q96GD4)
MINK = MINK (Homo sapiens (Human), UniProt Q8N4C8)
MSSK1 = MSSK1 (Homo sapiens (Human), UniProt Q9UPE1)
FGFR3(K650E) = FGFR3(K650E) (Homo sapiens (Human), UniProt P22607, K650E)
HIPK4 = HIPK4 (Homo sapiens (Human), UniProt Q8NE63)
Chain of HIPK4 (Q8NE63 whole entry): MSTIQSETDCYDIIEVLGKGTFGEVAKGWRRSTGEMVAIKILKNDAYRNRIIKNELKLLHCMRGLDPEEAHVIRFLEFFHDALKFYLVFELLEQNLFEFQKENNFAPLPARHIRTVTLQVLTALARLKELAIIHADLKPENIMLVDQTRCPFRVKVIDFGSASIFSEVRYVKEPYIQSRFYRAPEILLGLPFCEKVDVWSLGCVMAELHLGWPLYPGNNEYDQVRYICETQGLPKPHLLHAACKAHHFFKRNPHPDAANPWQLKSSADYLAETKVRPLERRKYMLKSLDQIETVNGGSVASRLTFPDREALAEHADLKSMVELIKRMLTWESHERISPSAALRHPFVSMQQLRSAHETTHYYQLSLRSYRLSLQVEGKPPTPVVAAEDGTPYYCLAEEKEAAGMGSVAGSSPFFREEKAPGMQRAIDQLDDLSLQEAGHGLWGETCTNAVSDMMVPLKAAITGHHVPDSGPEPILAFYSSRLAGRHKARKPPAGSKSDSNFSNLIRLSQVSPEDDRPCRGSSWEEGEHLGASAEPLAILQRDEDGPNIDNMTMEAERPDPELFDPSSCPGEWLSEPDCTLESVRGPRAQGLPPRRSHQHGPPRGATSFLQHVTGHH

NDR1 = NDR1 (Homo sapiens (Human), UniProt Q15208)
FGFR1(V561M) = FGFR1(V561M) (Homo sapiens (Human), UniProt P11362, V561M)
PDGFRα(V561D) = PDGFRα(V561D) (Homo sapiens (Human), UniProt P16234, V561D)
PKCβ1 = PKCβ1 (Homo sapiens (Human), UniProt P05771)
ABL(E255K) = ABL(E255K) (Homo sapiens (Human), UniProt P00519, E255K)
EPHA5 = EPHA5 (Homo sapiens (Human), UniProt P54756)
CK1γ1 = CK1γ1 (Homo sapiens (Human), UniProt Q9HCP0)
MSK2 = MSK2 (Homo sapiens (Human), UniProt O75676)
Chain of MSK2 (O75676 whole entry): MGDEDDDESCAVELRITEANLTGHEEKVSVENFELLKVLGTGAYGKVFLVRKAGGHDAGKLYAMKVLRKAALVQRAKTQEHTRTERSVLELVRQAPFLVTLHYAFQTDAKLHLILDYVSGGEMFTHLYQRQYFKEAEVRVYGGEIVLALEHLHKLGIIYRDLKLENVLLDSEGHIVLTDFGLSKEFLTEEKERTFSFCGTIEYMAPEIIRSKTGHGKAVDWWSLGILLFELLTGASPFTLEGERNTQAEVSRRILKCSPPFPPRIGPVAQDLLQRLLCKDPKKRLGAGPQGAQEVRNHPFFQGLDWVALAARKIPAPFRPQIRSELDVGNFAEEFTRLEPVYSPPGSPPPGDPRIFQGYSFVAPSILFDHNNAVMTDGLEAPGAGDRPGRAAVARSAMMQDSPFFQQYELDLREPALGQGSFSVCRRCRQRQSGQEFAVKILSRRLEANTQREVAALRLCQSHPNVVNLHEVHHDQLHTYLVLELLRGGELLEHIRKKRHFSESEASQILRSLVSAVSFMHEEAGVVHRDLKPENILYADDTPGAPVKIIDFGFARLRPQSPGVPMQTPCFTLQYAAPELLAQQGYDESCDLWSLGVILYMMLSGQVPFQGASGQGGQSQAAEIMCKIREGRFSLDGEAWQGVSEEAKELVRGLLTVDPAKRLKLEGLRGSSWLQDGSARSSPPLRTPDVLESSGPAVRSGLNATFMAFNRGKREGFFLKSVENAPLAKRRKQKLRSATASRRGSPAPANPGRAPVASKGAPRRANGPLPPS

EPHB1 = EPHB1 (Homo sapiens (Human), UniProt P54762)
MAP3K4_Cascade = MAP3K4_Cascade (Homo sapiens (Human), UniProt Q9Y6R4)
NuaK2 = NuaK2 (Homo sapiens (Human), UniProt Q9H093)
Chain of NuaK2 (Q9H093 whole entry, species assumed): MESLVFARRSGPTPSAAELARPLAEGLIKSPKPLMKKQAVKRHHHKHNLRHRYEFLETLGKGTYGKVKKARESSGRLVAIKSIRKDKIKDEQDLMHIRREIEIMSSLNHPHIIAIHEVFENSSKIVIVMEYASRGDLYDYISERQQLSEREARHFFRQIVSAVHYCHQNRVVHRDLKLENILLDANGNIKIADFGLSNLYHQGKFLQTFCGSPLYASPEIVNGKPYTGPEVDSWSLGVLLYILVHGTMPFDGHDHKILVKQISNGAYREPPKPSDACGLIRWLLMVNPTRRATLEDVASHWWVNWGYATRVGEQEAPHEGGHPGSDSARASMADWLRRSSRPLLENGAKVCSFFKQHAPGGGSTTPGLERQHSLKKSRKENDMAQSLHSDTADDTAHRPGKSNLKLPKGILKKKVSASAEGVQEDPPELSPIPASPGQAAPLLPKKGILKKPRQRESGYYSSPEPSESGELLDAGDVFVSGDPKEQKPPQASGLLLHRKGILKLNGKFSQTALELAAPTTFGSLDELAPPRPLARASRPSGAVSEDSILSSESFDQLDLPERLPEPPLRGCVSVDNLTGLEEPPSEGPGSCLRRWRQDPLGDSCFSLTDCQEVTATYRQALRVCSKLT

MAP2K4_Cascade = MAP2K4_Cascade (Homo sapiens (Human), UniProt P45985)

Chain of PKCι (P41743 whole entry): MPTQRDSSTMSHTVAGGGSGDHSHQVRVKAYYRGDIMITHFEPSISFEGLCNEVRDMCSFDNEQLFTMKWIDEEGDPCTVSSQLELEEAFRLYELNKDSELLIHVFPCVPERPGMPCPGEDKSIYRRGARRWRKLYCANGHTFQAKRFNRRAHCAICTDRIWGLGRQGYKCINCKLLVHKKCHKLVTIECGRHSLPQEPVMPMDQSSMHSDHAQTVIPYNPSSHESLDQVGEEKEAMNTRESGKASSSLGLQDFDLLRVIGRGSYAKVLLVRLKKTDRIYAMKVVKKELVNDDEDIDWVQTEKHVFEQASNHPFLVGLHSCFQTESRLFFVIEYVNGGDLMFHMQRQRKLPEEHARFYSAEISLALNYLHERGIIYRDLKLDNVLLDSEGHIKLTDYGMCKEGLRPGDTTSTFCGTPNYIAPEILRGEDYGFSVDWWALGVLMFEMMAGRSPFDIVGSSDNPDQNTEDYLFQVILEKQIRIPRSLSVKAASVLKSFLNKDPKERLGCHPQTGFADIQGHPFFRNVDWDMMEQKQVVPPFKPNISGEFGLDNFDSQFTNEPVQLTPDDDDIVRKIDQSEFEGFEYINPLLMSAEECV
Chain of PHKG1 (Q16816 whole entry): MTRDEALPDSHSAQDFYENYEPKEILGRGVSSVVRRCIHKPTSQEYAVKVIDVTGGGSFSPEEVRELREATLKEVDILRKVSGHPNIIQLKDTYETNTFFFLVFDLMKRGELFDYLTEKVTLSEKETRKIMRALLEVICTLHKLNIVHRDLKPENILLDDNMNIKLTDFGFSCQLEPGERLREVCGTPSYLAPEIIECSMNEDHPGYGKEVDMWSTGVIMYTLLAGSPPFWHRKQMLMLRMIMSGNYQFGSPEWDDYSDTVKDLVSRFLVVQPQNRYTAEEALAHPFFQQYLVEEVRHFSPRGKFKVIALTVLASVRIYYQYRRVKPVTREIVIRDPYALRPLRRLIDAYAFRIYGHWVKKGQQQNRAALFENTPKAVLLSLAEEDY

With `CCC1(c2ccccc2)C2=C(CC(C)(C)CC2=O)Nc2ncsc21` (centres unmarked) [Compound 1, 9-Ethyl-6,6-dimethyl-9-phenyl-5,6,7,9-tetrahydrothiazolo[4,5-b]quinolin-8(4H)-one] the inhibition at 10 µM (PHKG1) was 5.9%, the inhibition at 10 µM (PKCβ2) was -10.7% and the inhibition at 10 µM (ROS) was -0.2%. The inhibition at 10 µM (EGFR(L861Q)) was -6.1%, the inhibition at 10 µM (PKCι) was -2.7% and the inhibition at 10 µM (HIPK3) was -1.9%. It also gave an inhibition at 10 µM (SGK2) of -8.7%, an inhibition at 10 µM (PKCγ) of -7.7% and an inhibition at 10 µM (CaMK2β) of 2.8%. For the same compound, the inhibition at 10 µM (BLK) was 5%, the inhibition at 10 µM (DAPK1) was -8.7% and the inhibition at 10 µM (CK1γ3) was 1.5%. For the same compound, the inhibition at 10 µM (CDK7/CycH/MAT1) was 22.6%, the inhibition at 10 µM (TSSK3) was -5.1% and the inhibition at 10 µM (EEF2K) was 1.6%. For the same compound, the inhibition at 10 µM (AurB) was -0.4%, the inhibition at 10 µM (MINK) was 1.5% and the inhibition at 10 µM (MSSK1) was 1.2%. For the same compound, the inhibition at 10 µM (FGFR3(K650E)) was -3%, the inhibition at 10 µM (HIPK4) was -12.5% and the inhibition at 10 µM (NDR1) was 0.2%. It also gave an inhibition at 10 µM (FGFR1(V561M)) of 2.6%, an inhibition at 10 µM (PDGFRα(V561D)) of 2.8% and an inhibition at 10 µM (PKCβ1) of -7.4%. For the same compound, the inhibition at 10 µM (ABL(E255K)) was -1.4%, the inhibition at 10 µM (EPHA5) was 9.3% and the inhibition at 10 µM (CK1γ1) was 1.2%. The inhibition at 10 µM (MSK2) was 0.7%, the inhibition at 10 µM (EPHB1) was -0.4% and the inhibition at 10 µM (MAP3K4_Cascade) was 10.1%. It also gave an inhibition at 10 µM (NuaK2) of 1.5% and an inhibition at 10 µM (MAP2K4_Cascade) of 3.7%.

Source: patent US11203601B2, “Tricyclic compounds as glycogen synthase kinase 3 (GSK3) inhibitors and uses thereof” (The Broad Institute, Inc., priority 2017, dated 2021)
